The results in this text go back to ChEMBL document CHEMBL4725257, “Investigation into the influence of an acrylic acid acceptor in organic D-π-A sensitizers against phototoxicity” (Bioorg Med Chem, 2020).

The test system of series [1] is HeLa. The series can be described thus: Cytotoxicity against human HeLa cells assessed as reduction in cell viability incubated for 48 hrs measured under dark conditions by MTT assay. The series is classed as functional, cell-based. Background: Tetrazolium assays rely on reduction of a dye to a coloured formazan, in cell work by metabolically active cells.
Series [2] concerns HeLa. In words: Phototoxicity against human HeLa cells assessed as reduction in cell viability preincubated for 1 hr followed by white LED irradiation for 15 mins and measured after 48 hrs by MTT assay. The series is classed as functional, cell-based. The conditions noted are these: light or radiation study.
A short description of series [3]: Photo-oxidation of L-tryptophan assessed as oxidative damage at 10 uM irradiated with white LED light at 15 mins interval for 60 mins by fluorescence based analysis. The conditions noted are these: 1 h. The series is classed as ADME.
A short description of series [4]: Drug uptake in human HeLa cells at 20 uM incubated for 1 hr at 37 degC by fluorescence based analysis. The series is classed as ADME, cell-based.
The nature of series [5]: Drug uptake in human HeLa cells at 20 uM incubated for 1 hr at 4 degC by fluorescence based analysis. The series is classed as ADME, cell-based.
Series [6] is described as follows: Phototoxicity index, ratio of IC50 for cytotoxicity against human HeLa cells measured under dark condition to IC50 for phototoxicity against human HeLa cells upon white LED light irradiation. The series is classed as functional.
The nature of series [7]: Drug uptake in mitochondria of human HeLa cell by fluorescence confocal microscopy. The series is classed as ADME.
A short description of series [8]: Drug uptake in lysosomes of human HeLa cell by fluorescence confocal microscopy. The series is classed as ADME, subcellular, Lysosome.
Series [9] is described as follows: Drug uptake in human HeLa cells at 20 uM pretreated with clathrin-mediated endocytosis inhibitor, sucrose for 1 hr followed by incubation with compound for 1 hr by fluorescence based analysis. The series is classed as ADME, cell-based.
Series [10] can be described thus: Drug uptake in human HeLa cells at 20 uM pretreated with lipid raft endocytosis inhibitor, methyl-beta-cyclodextrin for 1 hr followed by incubation with compound for 1 hr by fluorescence based analysis. The series is classed as ADME, cell-based.
A short description of series [11]: Drug uptake in human HeLa cells at 20 uM pretreated with endosome fusion inhibitor, wortmannin for 1 hr followed incubation with compound for 1 hr by fluorescence based analysis. The class given is ADME, cell-based.
Series [12] in a line: Photo-oxidation of L-tryptophan assessed as oxidative damage at 10 uM irradiated with white LED light at 15 mins interval for 60 mins in presence of type 2 singlet oxygen quencher, NaN3 by fluorescence based analysis. The following applies: 1 h. The series is classed as ADME.
Series [13] can be described thus: Drug uptake in human HeLa cell membrane by fluorescence confocal microscopy. The series is classed as ADME, cell membranes.

Bounds are passed on as bounds.

As for `N#CC(C#N)=Cc1ccc(-c2ccc(-c3ccc(N(c4ccccc4)c4ccccc4)cc3)s2)s1`, the IC50 in the series on HeLa [1] was above 100 µM; in the series with HeLa [2], above 74.4 µM.
For `COC(=O)/C(C#N)=C/c1ccc(-c2ccc(-c3ccc(N(c4ccccc4)c4ccccc4)cc3)s2)s1`, in that order: above 100 µM and above 100 µM.
In the case of `O=C(O)/C=C/c1ccc(-c2ccc(-c3ccc(N(c4ccccc4)c4ccccc4)cc3)s2)s1`, the outcome in [3] was Active. Also, the Drug uptake was 80 pmol in series [4], 40 pmol in series [5], “Active” in series [7] and “Active” in [8]. For the same compound, the IC50 with HeLa [1] turned out to be 13.8 µM; in the series with HeLa [2], 0.046 µM. For the same compound, the “Ratio IC50” value in series [6] worked out at 460.
Take `O=C(O)c1ccc(-c2ccc(-c3ccc(N(c4ccccc4)c4ccccc4)cc3)s2)s1`: the outcome in series [3] was Active. Moreover, the Drug uptake is given as 299 pmol in series [4]; 64 pmol in [5]; 188 pmol in series [9]; 82 pmol in series [10]; 205 pmol in series [11]; “Active” in series [7]. The Drug uptake entry in series [8] is on record as “Active”. Further, the IC50 was above 100 µM in the series with HeLa [1] and 7.8 µM in the series with HeLa [2]. The “Ratio IC50” value in series [6] is above 12.
`O=C(O)C(=Cc1ccc(-c2ccc(-c3ccc(N(c4ccccc4)c4ccccc4)cc3)s2)s1)C(=O)O`: the Activity entry in series [3] is “Active”; in [12], “Not Active”. The Drug uptake in [4] was 53 pmol; in series [5] it was 36 pmol; in series [7], “Active”; in series [8], “Active”. For the same compound, the results for the IC50 with HeLa [1] and in the series on HeLa [2] were 61.8 µM and 0.68 µM, respectively. The “Ratio IC50” value in [6] worked out at 91.
Regarding `O=C(O)CCc1ccc(-c2ccc(-c3ccc(N(c4ccccc4)c4ccccc4)cc3)s2)s1`, in series [3], the result was Active. Moreover, the Drug uptake in series [4] was 232 pmol; in series [5], 44 pmol; in series [9], 199 pmol; in series [10], 98 pmol; in [11], 225 pmol; in series [7] it was “Active”. In addition, the Drug uptake entry in series [8] is “Active”. Moreover, the concentration for half-maximal inhibition (IC50) is 43.4 µM in the series on HeLa [1] and 2.4 µM in the series on HeLa [2]. Besides, the “Ratio IC50” value in series [6] is 18.
For the compound `c1ccc(N(c2ccccc2)c2ccc(-c3ccc(-c4cccs4)s3)cc2)cc1`, the outcome in [3] was Active. In addition, the Drug uptake in [4] is 105 pmol; in series [5] it was 68 pmol; in [7], “Active”; in series [8] it was “Active”. The IC50 with HeLa [1] and with HeLa [2] was above 100 µM in each case.
Take `C[n+]1ccc(/C=C/c2ccc(-c3ccc(-c4ccc(N(c5ccccc5)c5ccccc5)cc4)s3)s2)cc1.[I-]`: the result in series [3] was Active. Besides, the Drug uptake in series [4] is 747 pmol; in series [5], 344 pmol; in [9] it was 591 pmol; in series [10], 555 pmol; in [11], 649 pmol; in series [13], “Active”. Further, the Drug uptake entry in series [7] and in series [8] was “Active” each time. In addition, the figures for the IC50 in the series on HeLa [1] and in the series with HeLa [2] were 3.3 µM and 0.94 µM, respectively. Moreover, the “Ratio IC50” value in series [6] came out at 3.5.

Usually IC50 stands for the concentration needed to halve the response being measured.
